Results as given in PMC9319939, “Siccanin Is a Dual-Target Inhibitor of Plasmodium falciparum Mitochondrial Complex II and Complex III” (Pharmaceuticals, 2022).
Read-outs that look alike come from different tables or passages of the source.

Columns and labels:
P. falciparum 3D7 = assay: Drug sensitivity assay, 72 h, PfLDH-based; format: cell-based; conditions: Plasmodium falciparum
Protocol: The P. falciparum 3D7 strain was cultured, as described previously, in 3% hematocrit type A human red blood cells (RBCs) in RPMI1640 medium (Invitrogen; San Diego, CA, USA) supplemented with 25 mM sodium hydrogen biocarbonate, 10 μg/mL hypoxanthine, 40 μg/mL gentamicin sulfate, and 0.5% (w/v) Albumax II (Invitrogen) (“complete medium”). Cultures were maintained in a MG-70M multi-gas incubator (Taitec) under the conditions of 5% O2, 5% CO2, and 90% N2 at 37 °C. The medium was replaced daily. Parasitemia was measured by thin blood smears stained with Giemsa. In our previous study, we generated mutant P. falciparum strains expressing either disrupted or full-length versions of the flavoprotein (Fp) subunit (encoded by the Pfsdha gene). Both strains were cultured in complete medium at 3% hematocrit supplemented with 5 nM WR99210 (Jacobus Pharmaceuticals; Plainsboro, NJ, USA). The experiments using human RBCs were performed under the guidelines of Research Ethics Committee of the Faculty of Medicine of the University of Tokyo and Institutional Review Board (IRB) of Nagasaki University (Permission nos. 10050 and no. 19, respectively). Human RBCs were obtained from The Japanese Red Cross Society. The synchronization of parasite cultures was performed by treating with 5% (w/v) sorbitol for 10 min [77].
(§1) Synchronized ring-form parasites (0.3% parasitemia) were prepared in complete medium containing different concentration of various compounds (at a fixed final DMSO concentration of 0.1% (v/v)) and distributed to 96-well plates at 100 μL/well. After 72 h of incubation, parasite growth was monitored by the previously described lactate dehydrogenase (PfLDH)-based assay method; plates were read using a SpectraMax® Paradigm spectrophotometer (Molecular Devices, Inc.; San Jose, CA, USA). EC50 values were calculated using Prism® ver.6.01 (GraphPad; San Diego, CA, USA). Values are presented as the means of three independent experiments.

[1] = molecular target: mammalian complex I and III (Sus scrofa, UniProt F1RNZ1+P24964); assay: NADH-cytochrome c reductase activity in porcine mitochondria; format: biochemical
Sequence of mammalian complex I and III (F1RNZ1 entry or part of it): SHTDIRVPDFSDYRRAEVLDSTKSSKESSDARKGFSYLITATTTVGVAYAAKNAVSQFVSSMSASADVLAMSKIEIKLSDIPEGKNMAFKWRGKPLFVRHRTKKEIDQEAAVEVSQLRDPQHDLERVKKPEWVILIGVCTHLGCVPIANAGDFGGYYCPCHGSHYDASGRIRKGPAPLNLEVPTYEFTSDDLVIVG
Sequence of mammalian complex I and III (P24964 whole entry): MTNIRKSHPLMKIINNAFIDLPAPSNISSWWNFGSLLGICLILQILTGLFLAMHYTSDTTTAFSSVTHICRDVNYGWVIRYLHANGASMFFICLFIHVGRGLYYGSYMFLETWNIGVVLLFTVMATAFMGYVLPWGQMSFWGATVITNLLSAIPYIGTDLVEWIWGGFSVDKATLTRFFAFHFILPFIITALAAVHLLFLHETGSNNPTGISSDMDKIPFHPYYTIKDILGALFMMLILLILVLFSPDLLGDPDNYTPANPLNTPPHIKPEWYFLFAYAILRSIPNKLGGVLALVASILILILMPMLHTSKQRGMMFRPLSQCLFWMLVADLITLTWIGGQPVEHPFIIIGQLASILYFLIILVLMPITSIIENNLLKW
Sequence of mammalian complex I and III (F1SKM0 entry or part of it, further chain): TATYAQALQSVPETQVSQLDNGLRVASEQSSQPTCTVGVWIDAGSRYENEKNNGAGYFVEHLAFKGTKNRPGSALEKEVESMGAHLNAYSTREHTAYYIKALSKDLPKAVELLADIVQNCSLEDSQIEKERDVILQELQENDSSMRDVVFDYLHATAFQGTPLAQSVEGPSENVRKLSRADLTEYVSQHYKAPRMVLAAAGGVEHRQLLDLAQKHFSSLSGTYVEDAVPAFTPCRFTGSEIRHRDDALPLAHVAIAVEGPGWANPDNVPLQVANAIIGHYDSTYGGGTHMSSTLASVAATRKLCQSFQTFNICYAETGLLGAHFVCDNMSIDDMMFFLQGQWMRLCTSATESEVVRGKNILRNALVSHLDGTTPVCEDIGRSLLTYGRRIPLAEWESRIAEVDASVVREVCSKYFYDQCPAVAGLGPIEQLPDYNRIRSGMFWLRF
Protocol: Porcine mitochondria were prepared as described previously. NADH-cytochrome c (NADH-cyt c) activity was measured at 25 °C in 1 mL of the reaction mixture containing 1 mM MgCl2, 2 mM KCN, and 20 μM cytochrome c in 30 mM potassium phosphate buffer, pH 7.5. Activity was measured by recording the absorbance change of cytochrome c at 550 nm after the reaction was initiated by the addition of 20 μM NADH. Various concentrations of siccanin dissolved in DMSO were added to reaction mixtures 5 min before the initiation of the reactions. Selectivity was calculated as the ratio of mammalian to P. falciparum IC50s.

[2] = system: glycerol-3-phosphate dehydrogenase (G3PDH); assay: G3PDH activity, crude mitochondrial fraction, DCIP reduction; format: biochemical, Plasmodium falciparum
Protocol: (§2) A synchronized parasite culture was grown for 64 h and a crude mitochondrial fraction was prepared from trophozoite-stage cells (as confirmed by Giemsa staining). Infected red blood cells were collected by centrifugation at 800× g for 5 min at 4 °C and incubated for 5 min at room temperature with 40 mL of 0.075% (w/v) saponin in AIM buffer (120 mM KCl, 20 mM NaCl, 10 mM PIPES (1,4-piperazinediethanesulfonic acid) buffer [pH 6.7], 1 mM MgCl2, 5 mM glucose). Released parasites were collected by centrifugation at 2780× g for 7 min at 4 °C and washed three times with AIM buffer. […]
(§3) Complex II, DHODH, MQO, NDH2, G3PDH, and dihydroorotate-cytochrome c (DHO-cyt c) reductase activities were measured, as described previously, using a V-660 spectrophotometer (JASCO; Tokyo, Japan). Briefly, complex II activity was measured at 25 °C in a 1 mL reaction mixture containing 45 μM 2,6-dichlorophenolidophenol (DCIP), 100 μM ubiquinone-2 (UQ2), and 2 mM KCN in 50 mM potassium phosphate buffer, pH 8.0. DHODH, MQO, and G3PDH activities were measured at 25 °C in 1 mL of the reaction mixture containing 45 μM DCIP, 100 μM UQ2, and 2 mM KCN in 30 mM Tris-HCl buffer, pH 8.0. […] NDH2 activity was measured at 25 °C in 1 mL of the reaction mixture containing 100 µM UQ1 and 2 mM KCN in 50 mM potassium phosphate buffer, pH 8.0. […]

[3] = system: malate:quinone oxidoreductase (MQO); assay: MQO activity, crude mitochondrial fraction, DCIP reduction; format: biochemical, Plasmodium falciparum
Protocol: as §2, §3

[4] = system: Dd2_GNF (Carl-I1139K mutation); assay: Growth inhibition of Dd2_GNF (GNF156-resistant); format: cell-based; conditions: Plasmodium falciparum, read-out: Growth inhibition EC50, GNF
Protocol: P. falciparum 3D7-yDHODH was prepared and maintained as described previously. P. falciparum Dd2, and Dd2-derived mutant strains were kindly provided by David A. Fidock, and maintained at Nagasaki University essentially as described in reference, except without supplementation with WR99210.
as §1

Cc1cc(O)c2c(c1)O[C@@]1(C)CC[C@H]3C(C)(C)CCC[C@]34CO[C@@H]2[C@H]41 [Siccanin]
IC50 (P. falciparum 3D7; 3D7, read-out: Growth IC50, parent (wild-type) 3D7): 6.1 ± 1 µM | EC50 (P. falciparum 3D7; 3D7, Figure 6a, read-out: Growth inhibition EC50, 3D7 (parent)): 11.7 µM | IC50 (P. falciparum 3D7; 3D7, 72 h, 5 mM fumarate, read-out: Growth IC50 in presence of fumarate): 11.5 ± 1.09 µM | IC50 (P. falciparum 3D7; 3D7, 72 h, 5 mM succinate, read-out: Growth IC50 in presence of succinate): 10.8 ± 2.16 µM | IC50 (P. falciparum 3D7; 3D7, 72 h, no succinate or fumarate added, read-out: Growth IC50, P. falciparum): 8.4 µM | Effect on mammalian complex I and III ([1]; concentrations as high as 500 µM): did not inhibit | IC50 ([1]; read-out: Siccanin IC50, Mammal, Complex III, NADH-cytochrome c reductase, porcine mitochondria): > 500 µM | Effect on G3PDH activity ([2]; 10 µM): weakly inhibited | Relative residual activity of G3PDH ([2]; siccanin 10 μM): 72.5 ± 4.0% | Effect on MQO activity ([3]; 10 µM): did not inhibit | Relative residual activity of MQO ([3]; siccanin 10 μM): 109.2 ± 2.0% | EC50 [4]: 13.4 µM
